Tests used:
Mus musculus [1] = assay: Analgesic activity in mice at 10 mg/kg, sc by acetic acid writhing test; type: functional; details: route subcutaneous
[2] = Toxicity in […] at 20 mg/kg, sc assessed as rate of death; type: organism-based; set-up: dose 20 mg/kg, route subcutaneous; details: in vivo, read-out: Activity
Mus musculus [3] = assay: Analgesic activity in mice at 20 mg/kg, sc by acetic acid writhing test; type: functional; details: route subcutaneous
[4] = Toxicity in […] at 10 mg/kg, sc assessed as rate of death; type: organism-based; set-up: dose 10 mg/kg, route subcutaneous; details: in vivo, read-out: Activity
Mus musculus [5] = assay: Analgesic activity in mice at 5 mg/kg, sc by acetic acid writhing test; details: read-out: Inhibition
[6] = Toxicity in rat at 5 mg/kg, sc assessed as rate of death; details: in vivo

Row | SMILES | inhibition in vivo at 10 mg/kg (Mus musculus [1]) [%] | mortality [2] [%] | inhibition in vivo at 20 mg/kg (Mus musculus [3]) [%] | mortality [4] [%] | inhibition in vivo at 5 mg/kg (Mus musculus [5]) [%] | mortality [6] [%]
1 | Clc1ccc(CNC2CCCC2)cn1 | 37 | 0 | 66 | 0 |  | 
2 | c1ccc(CNC2CCCC2)nc1 |  | 0 | 0 |  |  | 
3 | c1cncc(CNCCC2CCCO2)c1 (centres undefined) | 56 | 0 | 23 | 0 |  | 
4 | c1cncc(NCC2CO2)c1 (centres undefined) |  | 0 | 0 |  |  | 
5 | CN1CCC[C@H]1c1cccnc1 [NICOTINE] | 100 | 100 |  | 50 | 88 | 25
6 | c1cncc(CNC2CCCC2)c1 | 0 | 0 | 61 | 0 |  | 
7 | Clc1ccc(NCC2CO2)cn1 (centres undefined) |  | 0 | 20.5 |  |  | 
8 | c1ccc(NCCc2ccco2)nc1 |  | 0 | 0 |  |  | 
9 | c1cncc(CNCCc2ccco2)c1 | 0 | 0 | 50 | 0 |  | 
10 | Clc1ccc(NCC2CCCO2)cn1 (centres undefined) |  | 0 | 0 |  |  | 
11 | c1ccc(NCCC2CCCO2)nc1 (centres undefined) |  | 0 | 0 |  |  | 
12 | Clc1ccc(CNCCC2CCCO2)cn1 (centres undefined) |  | 0 | 35 |  |  | 
13 | Clc1ccc(CNCCc2ccco2)cn1 | 41 | 0 | 46 | 0 |  | 
